In patent US20220390432A1, “METHODS OF CHARACTERIZING AND UTILIZING AGENT-CONDENSATE INTERACTIONS” (Whitehead Institute for Biomedical Research, priority 2019, published 2022):
Entries after “also recorded” stand apart in the source; their conditions may differ.

How the values were obtained:
HP1α = molecular target: T1, HP1α (Homo sapiens, UniProt P45973); assay: In vitro droplet assay, small molecule partitioning into HP1α condensates; assay type: binding
T1 construct: HP1α—full length, amino acids 1-191; 6xHis (N); made in house; host or cells: LOBSTR cells (E. coli)
Protocol: (§1) Recombinant BFP, GFP, or mCherry fusion proteins were concentrated and desalted to an appropriate protein concentration and 125 mM NaCl using Amicon Ultra centrifugal filters (30K MWCO, Millipore). Recombinant protein was added too. […] The protein solution was immediately loaded onto glass bottom 384 well plate (Cellvis P384-1.5H-N) and imaged with an Andor confocal microscope with a 150× objective. Unless indicated, images presented are of droplets settled on the glass coverslip.
Drug and small molecule concentrations used in the droplet experiments are as follows:
(§2) To analyze in vitro droplet experiments, custom Python scripts using the scikit-image package were written to identify droplets and characterize their size, shape and intensity. […] After segmentation, mean intensity for each droplet was calculated while excluding pixels near the phase interface, and background-corrected by subtracting intensity of dark images of droplet formation buffer only. Droplets identified in the channel of the fluorescent protein from ten independent fields of view were quantified for each experiment. The maximum intensity of signal within the droplets was calculated for each channel, the maximum intensity in the drug channel was termed “maximum drug intensity”. […]

MED1 droplets = molecular target: T2, MED1 droplets (Homo sapiens, UniProt Q15648); assay: In vitro droplet drug chase out experiment; assay type: binding; conditions: 5 μM cisplatin-TR, 10 μM MED1, unlabeled compound 10, 100 or 500 μM
T2 construct: MED1—amino acids 600-1581; 6xHis (N); made in house; host or cells: LOBSTR cells (E. coli)
Protocol: For chase-out experiments 5 μM labeled cisplatin-TR was added to a MED1 droplets reaction (10 μM MED1, 50 mM Tris-HCl pH 7.5, 10% glycerol, 1 mM DTT, 10% PEG) in order to form MED1 droplets concentrated with Cisplatin-TR. Unlabeled transplatin or unlabeled cisplatin (vehicle, 10 μM, 100 μM, or 500 μM) were added to the droplet mixture and the amount of labeled cisplatin-TR remaining in the droplet is measured after chase out. 100 μM fluorescent FLTX1 was added to a MED1 droplets reaction (10 μM MED1, 50 mM Tris-HCl pH 7.5, 10% glycerol, 1 mM DTT, 10% PEG) in order to form MED1 droplets concentrated with FLTX1.

MED1 aromatic mutant = molecular target: T3, MED1 aromatic mutant (Homo sapiens, UniProt Q15648, F1031A/F1273A/F1351A/F1564A/F657A/F708A/F713A/F724A/F821A/F826A/F858A/F859A/F865A/F878A/F883A/F895A/F898A/F920A/F931A/W1533A/Y1083A/Y1132A/Y1431A/Y1456A/Y1476A/Y1492A/Y661A/Y752A/Y835A/Y882A); assay: In vitro droplet assay with MED1 aromatic mutant; assay type: binding; conditions: 10% PEG, 125 mM NaCl, 10 μM protein, 5 μM small molecule
T3 construct: MED1—aromatic mutant amino acids 600-1581, all aromatic residues changed to alanine; 6xHis (N); made in house; host or cells: LOBSTR cells (E. coli)
Protocol: MED1—aromatic mutant amino acids 600-1581, all aromatic residues changed to alanine.
as §1, §2

MED1 condensates = molecular target: T4, MED1 condensates (Homo sapiens, UniProt Q15648); assay: FRAP of in vitro droplets with drug; assay type: binding; conditions: 5 μM TR-cisplatin, 10 μM protein, 125 mM NaCl, 10% PEG
T4 construct: MED1—amino acids 600-1581; 6xHis (N); made in house; host or cells: LOBSTR cells (E. coli)
Protocol: For FRAP of in vitro droplets, 5 pulses of laser at a 50 us dwell time was applied to the MED1 channel and 20 pulses of laser at a 100 μs dwell time was applied to the Cisplatin channel. Recovery was imaged on an Andor microscope every 1 s for the indicated time periods. Fluorescence intensity was measured using FIJI. Post bleach FRAP recovery data was averaged over 6 replicates for each channel.

[1] = test system: DNA in MED1 or HP1α droplets; assay: Cisplatin-DNA engagement assay; assay type: biochemical; conditions: size-shift on a bioanalyzer; cisplatin 0-2 mM
Protocol: MED1-IDR-BFP and HP1a-BFP droplets were formed by mixing 10 μM protein with the droplet formation buffer containing 50 mM Tris-HCl pH 7.5, 100 mM NaCl, 10% PEG 8000, 10% glycerol, 1 mM DTT and 5 ng/ul DNA in a 10 μl reaction volume. The droplet reactions were incubated for 30 min at RT. Next, increasing concentrations of activated Cisplatin (0, 0.5, 0.75, 1, 1.5, and 2 mM) were added to the droplet reactions and incubated for another 30 min at RT. The reactions are then treated with 1 μl of Proteinase K (Invitrogen, 20 mg/ml) for 4 hr at 55° C. Platination of DNA was visualized by size-shift on a bioanalyzer.

[2] = test system: MED1 genomic occupancy in HCT116 cells; assay: MED1 ChIP-seq in HCT116 cells; assay type: cell-based, human; conditions: 50 μM cisplatin for 6 hours

T2 sequence (Q15648 600-1581): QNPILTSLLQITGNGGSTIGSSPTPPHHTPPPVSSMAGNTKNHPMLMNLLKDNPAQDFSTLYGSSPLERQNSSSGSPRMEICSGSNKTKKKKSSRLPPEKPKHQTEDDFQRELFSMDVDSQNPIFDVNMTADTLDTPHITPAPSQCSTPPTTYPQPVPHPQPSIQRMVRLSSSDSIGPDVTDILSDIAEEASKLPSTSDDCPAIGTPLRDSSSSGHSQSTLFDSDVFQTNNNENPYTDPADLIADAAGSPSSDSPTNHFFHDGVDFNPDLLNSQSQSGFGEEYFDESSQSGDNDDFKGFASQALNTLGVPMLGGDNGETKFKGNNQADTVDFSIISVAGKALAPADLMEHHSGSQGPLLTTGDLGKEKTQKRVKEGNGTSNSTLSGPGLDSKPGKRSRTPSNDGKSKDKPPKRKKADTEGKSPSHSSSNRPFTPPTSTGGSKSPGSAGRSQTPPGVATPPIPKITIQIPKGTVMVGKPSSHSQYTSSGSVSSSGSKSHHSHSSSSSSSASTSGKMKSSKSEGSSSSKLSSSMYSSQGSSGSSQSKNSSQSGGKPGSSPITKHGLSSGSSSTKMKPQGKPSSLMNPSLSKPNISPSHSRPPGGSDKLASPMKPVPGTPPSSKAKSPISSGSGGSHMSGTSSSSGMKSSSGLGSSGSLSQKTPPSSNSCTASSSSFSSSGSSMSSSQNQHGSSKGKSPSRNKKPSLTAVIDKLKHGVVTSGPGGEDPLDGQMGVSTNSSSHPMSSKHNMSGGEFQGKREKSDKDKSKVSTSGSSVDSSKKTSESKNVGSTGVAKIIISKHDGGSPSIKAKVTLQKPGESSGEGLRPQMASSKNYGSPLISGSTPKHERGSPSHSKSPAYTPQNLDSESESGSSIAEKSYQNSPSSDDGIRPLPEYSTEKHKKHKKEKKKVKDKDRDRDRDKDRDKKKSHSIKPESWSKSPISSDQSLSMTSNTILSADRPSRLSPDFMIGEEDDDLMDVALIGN
T1 sequence (P45973 whole entry, the tested form may be a part): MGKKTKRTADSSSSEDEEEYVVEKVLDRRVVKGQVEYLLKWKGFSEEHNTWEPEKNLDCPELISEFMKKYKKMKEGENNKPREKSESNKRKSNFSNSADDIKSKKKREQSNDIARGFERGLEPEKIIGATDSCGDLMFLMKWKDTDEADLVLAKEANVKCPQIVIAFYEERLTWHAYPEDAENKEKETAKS
T4 sequence (Q15648 600-1581): as the sequence (Q15648 600-1581) above

`N.N.[Cl][Pt][Cl]` [cisplatin] was tested, and the “partitioning / incorporation into HP1α droplets” value (HP1α) was “freely diffuses”, the “chase out of cisplatin-TR from MED1 droplets by unlabeled compound” value (MED1 droplets; listed as unlabeled cisplatin) was “able to chase out cisplatin-TR” and the “chase out of cisplatin-TR from MED1 droplets by unlabeled compound” value (MED1 droplets; listed as unmodified cisplatin) was “could be chased out of the condensate”. For the same compound, the “partitioning into MED1 aromatic mutant droplets” value (MED1 aromatic mutant) was “no longer partitioned; also recorded: substantially reduced”, the “mobility in MED1 droplets (FRAP)” value (MED1 condensates) was “highly mobile” and the “DNA platination in MED1 versus HP1α condensates” value [1] was “more efficiently platinated in MED1 condensates than in HP1α condensates”. For the same compound, the “MED1 ChIP-seq signal after cisplatin” value [2] was “preferential loss of MED1 ChIP-seq signal at super-enhancers; also recorded: reduced”.
